Experimental data: patent US4020111A, “Propynyloxy alkyl arene insecticides” (priority 1975, dated 1977)

Assays:
[1] = system: polyvalent resistant (CH strain) houseflies; assay: whole plant or invertebrate; type: in vivo, housefly (CH strain); details: Musca domestica, topical, 24 h, read-out: mortality, insecticide used without synergist
Procedure: The effect of O-(2-propynyl) oximes with Dimetilan and with GS 13798 was obtained from tests on polyvalent resistant (CH strain) houseflies that had been chilled and to the dorsal region of which was applied an acetone solution of synergist and insecticide at a ratio of two to one. Duplicate tests were performed using 10 four to five-day old female houseflies per test. After dosage, the flies were put in a plastic petri dish with cotton soaked in a sugar-water solution. These doses of insecticide used without synergist caused 10-40% mortality.
(§1) In Table IX, and in the tables following it, the doses of topically applied insecticides and of synergists unless otherwise noted are expressed as micrograms per fly (μg/fly).
The effect of compounds II-C, II-D and II-E with Dimetilan and GS 13798 was determined, following the procedure of Example 5, from tests on polyvalent resistant (CH strain) houseflies. These doses of insecticide used without synergist caused 10-40% mortality.
(§2) The synergistic effect with GS 13005 of compounds I-A, I-B, I-D, I-E, I-F, I-G and I-I was determined from topical application tests to IN/WHO strain, Rutgers A strain and polyvalent CH strain houseflies using the procedures of Example 5. The percent kills of the IN/WHO strain flies after 24 hours are shown in Table XXVIII; of the Rutgers A strain, in Table XXIX; and of the polyvalent CH strain, in Table XXX. The doses of insecticide alone to the CH strain files caused 10-40% mortality.
(§3) The synergistic effect with Diazinon and GS 13005 of various of the benzyl 2-propynyl ethers identified in Tables II and IIa was determined by topical application tests on IN/WHO strain, and Rutgers A strain and polyvalent, resistant, CH strain houseflies using the procedures of Example 5. The percent kills after 24 hours of IN/WHO strain flies are shown in Table XXXI; of Rutgers A strain flies, in Table XXXII; and of CH strain flies, in Table XXXIII. The doses of insecticide alone to the CH strain flies caused 10-40% mortality.
The synergistic effect with pyrethrum of various synergist compounds was determined by topical application tests on polyvalent, resistant CH strain houseflies following the procedure of Example 5. Application of the insecticide alone caused 10-40% mortality.

[2] = system: IN/WHO strain house flies; assay: topical application test, percent kill after 24 hours, IN/WHO strain; type: in vivo, house fly (susceptible IN/WHO strain)
Procedure: as §1
The synergistic effect of O-(2-propynyl) oximes with mobam was determined from topical application tests on susceptible, female, IN/WHO strain house flies and from tests on resistant, female, Rutgers A strain house flies. The synergist and insecticide were dissolved in ACS Grade acetone in such quantities that a 1.0μ liter volume applied to the thorax of 3-to-5 day old CO2 -anesthetized female adult house flies contained the desired dosage. After being treated, the flies were confined, 10 to a plaster petri dish, with 3-5 dishes/treatment, and held for 24-hr. observation of mortality. Reconstituted skim milk on cotton dental wicks was provided during the holding period. The percent kills after 24 hours are shown in Table X for the IN/WHO strain and Table XI for the Rutgers A strain.
The synergistic effect of benzyl 2-propynyl ethers with mobam was determined from topical application tests on IN/WHO and Rutgers A strain houseflies, following the procedure of Example 5. The percent kills after 24 hours are shown in Table XIV for the IN/WHO strain and in Table XV for the Rutgers A strain.
The effects of varying the insecticide dose and the synergist-insecticide ratio are further illustrated, with synergist compounds II-D, II-E, II-F and Mobam insecticide, in Tables XVI, XVII and XVIII.
The synergistic effect on IN/WHO flies of synergist compound II-K with Dimetilan, pyrolan, Baygon and HRS 1422 is illustrated by the 24 hour percent mortality data in Tables XIX, XX and XXI.
The effect on IN/WHO flies of synergist compound IV-C, identified in Table IV, with mobam was determined by the topical application procedure of Example 5.
The synergistic effect with Diazinon of compounds I-B, I-D, I-F, I-G, I-H and I-I, identified in Tables I and Ia, was determined from topical application tests on IN/WHO strain houseflies and on Rutgers A strain houseflies by the procedure of Example 5. The percent kills after 24 hours are shown in Table XXV for the IN/WHO strain and Table XXVI for the Rutgers A strain.
as §2, §3
The synergist effect on IN/WHO flies of synergist compound II-K with Gardona and Bidrin is illustrated by the 24 hour percent mortality data in Tables XXXIV and XXXV.
The synergistic effect on IN/WHO strain flies and Rutgers A strain flies of compound IV-C with GS 13005 and with Diazinon was determined by the topical application procedure of Example 5. The percent kills of IN/WHO strain flies after 24 hours are shown in Tables XXXVI and XXXVII; the percent kills of Rutgers A strain flies are shown in Tables XXXVIII and XXXIX.

mice [3] = assay: acute toxicity of Dimetilan alone and of synergist alone (intraperitoneal); type: in vivo, Swiss albino white male mice; details: for Lethality (number of mice dead): 48 hours
Procedure: To determine the acute toxicity of dimetilan alone, eight dosage levels of Dimetilan, ranging from 4 to 32 mg per kg wer applied to eight, Swiss, albino, white, male mice per dosage level. The mice weighed approximately 23 to 27 grams and were five to size weeks old. The Dimetilan was administered intraperitoneally in 0.1 ml of corn oil one hour after the administration of the same dose of corn oil alone.
To determine the acute toxicity of the synergist alone, various synergists were administered intraperitoneally at a dose of 1000 mg/kg to each of a group of eight mice. The number of animals dead at the end of 72 hours is reported in the left hand column of Table XXXXVI.

mice [4] = assay: synergism of acute toxicity of Dimetilan, GS 13005, Secobarbital and Methadone (intraperitoneal); type: in vivo, Swiss albino white male mice; details: for number of mice dead: 48 hours
Procedure: The synergism of the acute toxicity of Dimetilan by various synergists was determined by tests on Swiss albino, white male mice aged 5 to 6 weeks and weighing 23 to 27 grams. The synergists and insecticides were dissolved in corn oil and the drugs were dissolved in distilled water. All compounds were administered intraperitoneally by injection in the lower quadrent of the abdomen. The synergist was administered in 0.1 ml of corn oil 1 hour prior to administration of the insecticide. Eight mice were treated, per dosage, with each synergist. The mice were watched for a minimum of 6 hours while held in a glass jar with bedding individually after intraperitoneal injection of the test solutions. Lethality was noted, the animals were weighed and transferred in cages, and food and water were supplied. Control mice were given 0.1 ml of corn oil at the time of administration of the synergist to the test mice and 0.1 ml corn oil plus Dimetilan at the time of administration of the insecticide to the test mice.
By the same procedure, the synergism of acute toxicity of GS 13005, Secobarbital and 6-dimethylamino-4,4-diphenyl-3-heptanone [Methadone] was determined.

[5] = system: German male cockroaches (Blatella Germanicus); assay: topical application to thorax, 24 hour mortality of German male cockroaches; type: in vivo, German cockroach (Blatella Germanicus)
Procedure: The synergistic effect with mobam of synergist compounds I-B, II-H, II-K and IV-C is further illustrated by the 24 hour mortality data of German male cockroaches (Blatella Germanicus) shown in Table XXXX. The synergists and insecticide were diluted in acetone and applied in small droplets to the thorax of the insect. These doses of synergist alone gave zero percent insect mortality.
The synergistic effect with GS 13005 of compounds I-B, II-H, II-K, II-P, II-Q, II-R and IV-C is illustrated by the 24 hour mortality of German male cockroaches shown in Table XXXXI. These doses of synergist alone caused zero percent insect mortality.

mice [6] = assay: extension of Secobarbital sleeping time by synergists; type: in vivo, Swiss albino white male mice; details: Secobarbital 37 mg/K; for Relative Sleeping Time: treated/control
Procedure: (§4) The selectivity of the synergist compounds of this invention is illustrated by the results of sleeping-time extension tests and of acute toxicity tests on Swiss albino white male mice.
(§5) The effect of various synergist compounds on sleeping time of sodium secobarbital [Secobarbital] and of 3,3-diethyl-5-methyl-2,4-dioxypiperidine [Noludar] was determined by administering the drug, with and without synergist, to approximately 38-day old male mice weighing from 25 to 30 grams. Synergists were administered in each of two doses, 74.0 mg/kg (dilution being 2.0 mg/0.1 ml corn oil), and 110.0 mg/kg (dilution 3.0 mg/0.1 ml oil). Secobarbital was administered at a dose of 37.0 mg/kg (dilution 1.0 mg/0.1 ml water). Noludar was administered at a dose of 110.0 mg/kg (dilution 3.0 mg/0.1 ml water). The synergist was administered one hour prior to administration of the Secobarbital or Noludar. Secobarbital and Noludar sleeping times were obtained for both the control (drug only) and the treated (synergist plus drug) mice by noting the time lapse between the administration of the drug and the recovery of the righting reflex, i.e. when the animal regains conciousness and can walk up an inclined wooden tray with coordination. The relative sleeping time (R.S.) was noted. The R.S. is the extended sleeping time in the treated mice (synergist plus drug) divided by the sleeping time in the control mice (drug only). The mean sleeping time for the treated mice and the R.S. are shown on Table XXXXIV for various synergist compounds.

mice [7] = assay: extension of Noludar sleeping time by synergists; type: in vivo, Swiss albino white male mice; details: Noludar 110 mg/K, synergist 110 mg/K; for Relative Sleeping Time: treated/control
Procedure: as §4, §5

[8] = synergist alone at doses of Table XXXXI
[9] = Dimetilan 8 mg/kg + synergist 80 mg/kg ip, of eight mice
[10] = Dimetilan 8 mg/kg + synergist 240 mg/kg ip, of eight mice

Structure (SMILES): Cc1cc(OC(=O)N(C)C)nn1C(=O)N(C)C [Dimetilan, 1-(dimethylcarbamoyl)-5-methyl-3-pyrazolyl dimethylcarbamate]
- mortality at 2 µg/fly [1]: 10 to 40%
- 24 hour percent mortality ([2]; Dimetilan alone 0.031 μg/fly): 0%
- 24 hour percent mortality ([2]; Dimetilan alone 0.063 μg/fly): 17%
- 24 hour percent mortality ([2]; Dimetilan alone 0.13 μg/fly): 43%
- 24 hour percent mortality ([2]; Dimetilan alone 0.25 μg/fly): 100%
- Lethality (number of mice dead) (mice [3]; Dimetilan alone 4.0 mg/kg ip, of eight mice): 0
- Lethality (number of mice dead) (mice [3]; Dimetilan alone 8.0 mg/kg ip, of eight mice): 0
- Lethality (number of mice dead) (mice [3]; Dimetilan alone 12.0 mg/kg ip, of eight mice): 1
- Lethality (number of mice dead) (mice [3]; Dimetilan alone 16.0 mg/kg ip, of eight mice): 3
- Lethality (number of mice dead) (mice [3]; Dimetilan alone 20.0 mg/kg ip, of eight mice): 4
- Lethality (number of mice dead) (mice [3]; Dimetilan alone 24.0 mg/kg ip, of eight mice): 7
- Lethality (number of mice dead) (mice [3]; Dimetilan alone 28.0 mg/kg ip, of eight mice): 8
- Lethality (number of mice dead) (mice [3]; Dimetilan alone 32.0 mg/kg ip, of eight mice): 8
- dose level just below that at which Dimetilan alone showed lethality (mice [3]; mice, ip): 8 mg/kg
- number of mice dead (mice [4]; control: Dimetilan 8 mg/kg with 0.1 ml oil, 80 mg/kg): 0
- number of mice dead (mice [4]; control: Dimetilan 8 mg/kg with 0.1 ml oil, 240 mg/kg): 0

Structure (SMILES): C#CCOCc1cccc2ccccc12 [II-R, α-naphthylmethyl 2-propynyl ether]
- insect mortality, synergist alone [5, 8]: zero
- Mean Sleeping Time (mice [6]; synergist 74 mg/K): 35 min
- Relative Sleeping Time (mice [6]; synergist 74 mg/K): 1.2
- Mean Sleeping Time (mice [6]; synergist 110 mg/K): 96 min
- Relative Sleeping Time (mice [6]; synergist 110 mg/K): 1.6
- Mean Sleeping Time (mice [7]): 49 min
- Relative Sleeping Time (mice [7]): 1.7
- number of mice dead (mice [4]; [9]): 0
- number of mice dead (mice [4]; [10]): 2

Structure (SMILES): C#CCOC(c1ccc(Cl)cc1)C(C)[N+](=O)[O-] (stereo not drawn) [IV-C]
- insect mortality, synergist alone ([5]; synergist alone at doses of Table XXXX): zero
- insect mortality, synergist alone [5, 8]: zero
- Mean Sleeping Time (mice [6]; synergist 74 mg/K): 112 min
- Relative Sleeping Time (mice [6]; synergist 74 mg/K): 4.7
- Mean Sleeping Time (mice [7]): 74 min
- Relative Sleeping Time (mice [7]): 2.5
- number of mice dead (mice [4]; [9]): 5
- number of mice dead (mice [4]; [10]): 7

Structure (SMILES): CCOCCOCCOC(C)Oc1ccc2c(c1)OCO2 (stereo not drawn) [Sesoxane, reference compound]
- Relative Sleeping Time (mice [6]; synergist 74 mg/K): 6.1
- Relative Sleeping Time (mice [6]; synergist 110 mg/K): 8.3
- Relative Sleeping Time (mice [7]): 3.1
- number of mice dead (mice [3]; synergist alone 1000 mg/kg ip, 72 hours, of eight mice): 1
- number of mice dead (mice [4]; [9]): 8
- number of mice dead (mice [4]; [10]): 8
- mice lethality (number dead) (mice [4]; GS 13005 71 mg/kg + synergist 213 mg/kg): 0
- mice lethality (number dead) (mice [4]; Methadone 32 mg/kg + synergist 215 mg/kg): 5
- mice lethality (number dead) (mice [4]; Secobarbital 90 mg/kg + synergist 215 mg/kg): 6
